Data reported in publication PMC12846068, “Insights into Transport Function of the Murine Organic Anion-Transporting Polypeptide OATP1B2 by Comparison with Its Rat and Human Orthologues” (Toxics, 2025).
Like-named read-outs stand apart in the source and are kept apart here.

Key:
mOATP1B2 = target: T1, mOATP1B2 (Mus musculus, UniProt Q9JJL3); assay: cis-inhibition of mOATP1B2-mediated E1S or TCA uptake in HEK293 cells; assay type: cell-based
T1 construct: The full-length mOATP1B2 and rOATP1B2 consist of 689 and 678 amino acids
T1 sequence (Q9JJL3 1-689): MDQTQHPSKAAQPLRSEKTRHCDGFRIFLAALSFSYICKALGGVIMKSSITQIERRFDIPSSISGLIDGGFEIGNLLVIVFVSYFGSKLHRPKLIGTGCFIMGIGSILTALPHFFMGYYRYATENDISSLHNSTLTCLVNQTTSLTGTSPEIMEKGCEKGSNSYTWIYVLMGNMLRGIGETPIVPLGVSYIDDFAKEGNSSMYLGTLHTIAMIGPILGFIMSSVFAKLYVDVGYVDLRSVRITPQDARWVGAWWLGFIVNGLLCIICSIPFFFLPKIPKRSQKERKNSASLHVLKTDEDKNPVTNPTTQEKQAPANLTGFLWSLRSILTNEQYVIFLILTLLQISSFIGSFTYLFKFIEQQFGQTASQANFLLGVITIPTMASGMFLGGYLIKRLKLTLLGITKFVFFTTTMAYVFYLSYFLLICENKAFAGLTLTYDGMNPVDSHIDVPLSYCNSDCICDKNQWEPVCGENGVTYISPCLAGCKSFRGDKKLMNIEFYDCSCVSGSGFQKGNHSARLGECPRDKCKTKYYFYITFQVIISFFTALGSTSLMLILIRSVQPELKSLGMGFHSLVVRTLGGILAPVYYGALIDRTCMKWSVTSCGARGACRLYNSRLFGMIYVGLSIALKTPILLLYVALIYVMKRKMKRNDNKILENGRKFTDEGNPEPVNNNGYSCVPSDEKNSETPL
Description: Inhibition experiments with mOATP1B2 and rOATP2B1 were carried out in triplicate as cis-inhibition. […] Inhibitory effects were calculated as a percentage of the net-uptake rates. […] The means ± average deviation (AD, for N = 2) were calculated from two experiments on two different days. The significance as a p-value was calculated using Student's t-test in Microsoft Excel.

rOATP1B2 = target: T2, rOATP1B2 (Rattus norvegicus, UniProt Q9QZX8); assay: cis-inhibition of rOATP1B2-mediated E1S or TCA uptake in HEK293 cells; assay type: cell-based
T2 construct: The full-length mOATP1B2 and rOATP1B2 consist of 689 and 678 amino acids
T2 sequence (Q9QZX8 1-687): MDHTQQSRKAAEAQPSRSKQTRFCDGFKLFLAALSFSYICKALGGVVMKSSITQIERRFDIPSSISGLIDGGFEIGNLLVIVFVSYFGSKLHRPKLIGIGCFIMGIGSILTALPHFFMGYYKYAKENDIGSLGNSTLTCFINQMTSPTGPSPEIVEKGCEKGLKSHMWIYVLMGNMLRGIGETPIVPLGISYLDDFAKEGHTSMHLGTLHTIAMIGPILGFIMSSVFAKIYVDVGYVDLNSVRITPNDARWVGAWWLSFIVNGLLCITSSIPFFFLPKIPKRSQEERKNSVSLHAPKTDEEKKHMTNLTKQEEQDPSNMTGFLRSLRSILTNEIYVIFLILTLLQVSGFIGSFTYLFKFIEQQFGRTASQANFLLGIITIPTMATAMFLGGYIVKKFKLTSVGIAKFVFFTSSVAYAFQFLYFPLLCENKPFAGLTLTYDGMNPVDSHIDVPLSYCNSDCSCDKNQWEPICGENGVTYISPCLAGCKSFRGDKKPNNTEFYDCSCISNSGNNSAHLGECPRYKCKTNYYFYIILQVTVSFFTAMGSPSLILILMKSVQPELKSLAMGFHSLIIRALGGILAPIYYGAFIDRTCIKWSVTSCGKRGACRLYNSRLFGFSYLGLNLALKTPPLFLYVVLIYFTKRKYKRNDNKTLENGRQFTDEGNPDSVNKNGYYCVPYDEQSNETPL

hOATP1B1 = target: T3, hOATP1B1 (Homo sapiens, UniProt Q9Y6L6); assay: cis-inhibition of hOATP1B1-mediated E1S uptake in HEK293 cells; assay type: cell-based; set-up: expressed in transfected cells; host or cells: HEK-293, stably transfected; conditions: 10 µM drug, 0.01 µM [3H]-E1S, 1 min
T3 sequence (Q9Y6L6 1-691): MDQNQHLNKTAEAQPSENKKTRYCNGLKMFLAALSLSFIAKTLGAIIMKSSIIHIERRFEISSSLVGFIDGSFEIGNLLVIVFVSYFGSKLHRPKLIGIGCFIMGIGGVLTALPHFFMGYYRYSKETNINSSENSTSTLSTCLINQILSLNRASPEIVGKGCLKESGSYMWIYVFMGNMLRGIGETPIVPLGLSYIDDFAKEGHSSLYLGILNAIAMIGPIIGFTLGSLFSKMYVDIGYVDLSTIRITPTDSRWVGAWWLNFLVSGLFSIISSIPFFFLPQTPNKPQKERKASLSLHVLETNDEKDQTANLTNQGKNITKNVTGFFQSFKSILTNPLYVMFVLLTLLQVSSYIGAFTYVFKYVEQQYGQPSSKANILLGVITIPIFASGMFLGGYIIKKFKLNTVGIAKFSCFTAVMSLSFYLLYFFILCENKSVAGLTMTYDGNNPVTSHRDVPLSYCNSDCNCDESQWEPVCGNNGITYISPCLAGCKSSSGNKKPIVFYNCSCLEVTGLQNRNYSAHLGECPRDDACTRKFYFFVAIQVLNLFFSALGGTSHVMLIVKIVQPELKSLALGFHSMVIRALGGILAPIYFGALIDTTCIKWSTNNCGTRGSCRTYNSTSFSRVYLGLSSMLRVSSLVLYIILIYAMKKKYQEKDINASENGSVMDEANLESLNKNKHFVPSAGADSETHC
Description: (§1) Inhibitory effects were calculated as a percentage of the net-uptake rates.
(§2) The means ± average deviation (AD, for N = 2) were calculated from two experiments on two different days. The significance as a p-value was calculated using Student’s t-test in Microsoft Excel.

hOATP1B3 = target: T4, hOATP1B3 (Homo sapiens, UniProt Q9NPD5); assay: cis-inhibition of hOATP1B3-mediated TCA uptake in HEK293 cells; assay type: cell-based; set-up: expressed in transfected cells; host or cells: HEK-293, stably transfected; conditions: 10 µM drug, 1 µM TCA, 10 min
T4 sequence (Q9NPD5 1-702): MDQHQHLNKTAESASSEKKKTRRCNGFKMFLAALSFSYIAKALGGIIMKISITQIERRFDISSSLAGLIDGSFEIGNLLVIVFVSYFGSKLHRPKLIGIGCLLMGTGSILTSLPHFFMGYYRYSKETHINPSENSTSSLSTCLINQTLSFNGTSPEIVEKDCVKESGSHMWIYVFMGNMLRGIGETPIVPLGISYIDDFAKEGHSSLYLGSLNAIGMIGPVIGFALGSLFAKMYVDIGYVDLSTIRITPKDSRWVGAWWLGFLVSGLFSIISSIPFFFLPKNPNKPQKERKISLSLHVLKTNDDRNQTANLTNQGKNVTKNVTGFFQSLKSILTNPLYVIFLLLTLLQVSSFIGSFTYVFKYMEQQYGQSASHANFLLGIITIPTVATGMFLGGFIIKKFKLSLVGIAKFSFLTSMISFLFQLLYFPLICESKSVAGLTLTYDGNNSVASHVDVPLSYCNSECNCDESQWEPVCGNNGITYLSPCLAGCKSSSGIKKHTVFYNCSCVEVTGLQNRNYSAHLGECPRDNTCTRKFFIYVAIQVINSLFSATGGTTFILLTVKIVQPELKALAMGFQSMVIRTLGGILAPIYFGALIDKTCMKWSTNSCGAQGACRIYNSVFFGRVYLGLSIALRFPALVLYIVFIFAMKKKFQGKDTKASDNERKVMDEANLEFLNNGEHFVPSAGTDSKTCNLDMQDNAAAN
Description: as §1, §2

[1] = substrate: C[C@H](CCC(=O)NCCS(=O)(=O)O)[C@H]1CC[C@H]2[C@@H]3[C@H](O)C[C@@H]4C[C@H](O)CC[C@]4(C)[C@H]3C[C@H](O)[C@]12C; assay: cells, lysate or membranes; conditions: 1 min, 37 °C, increasing unlabeled substrate with 10 nM 3H-substrate, pH 7.4
[2] = 10 µM drug, substrates E1S and TCA not separated
[3] = HEK293, 10 µM drug, 1 µM [3H]-E1S, 1 min, read-out: Inhibitory effect on mOATP1B2-mediated E1S uptake
[4] = HEK293, read-out: Inhibitory effect on mOATP1B2-mediated TCA uptake, 10 µM drug, 1 µM [3H]-TCA, 1 min
[5] = HEK293, 10 µM drug, 1 µM [3H]-E1S, 1 min, read-out: Inhibitory effect on rOATP1B2-mediated E1S uptake
[6] = HEK293, read-out: Inhibitory effect on rOATP1B2-mediated TCA uptake, 10 µM drug, 1 µM [3H]-TCA, 1 min

Molecule: CCCc1nc(C(C)(C)O)c(C(=O)O)n1Cc1ccc(-c2ccccc2-c2nnn[nH]2)cc1 [Olmesartan, olmesartan]
- Inhibitory effect on mOATP1B2-mediated substrate uptake (summary over E1S and TCA) (mOATP1B2; [2]): below 50%
- inhibition at 10 µM (mOATP1B2; [3]): 18%
- inhibition at 10 µM (mOATP1B2; [4]): 25%
- Inhibitory effect on rOATP1B2-mediated substrate uptake (summary over E1S and TCA) (rOATP1B2; [2]): below 50%
- inhibition at 10 µM (rOATP1B2; [5]): 27%
- inhibition at 10 µM (rOATP1B2; [6]): 32%
- Inhibitory effect on hOATP1B1-mediated E1S uptake (hOATP1B1): 18%
- Inhibitory effect on hOATP1B1-mediated E1S uptake (hOATP1B1; listed as olmesartan): less than 50%
- Inhibitory effect on hOATP1B3-mediated TCA uptake (hOATP1B3): 29%
- Inhibitory effect on hOATP1B3-mediated TCA uptake (hOATP1B3; listed as olmesartan): less than 50%

Molecule: CC(C)c1nc(CN(C)C(=O)N[C@H](C(=O)N[C@@H](Cc2ccccc2)C[C@H](O)[C@H](Cc2ccccc2)NC(=O)OCc2cncs2)C(C)C)cs1 [Ritonavir, ritonavir]
- inhibition at 10 µM (mOATP1B2; [3]): 74%
- inhibition at 10 µM (mOATP1B2; [4]): 71%
- inhibition at 10 µM (rOATP1B2; [5]): 84%
- inhibition at 10 µM (rOATP1B2; [6]): 78%
- inhibition at 10 µM (rOATP1B2; HEK293, read-out: Inhibitory effect on rOATP1B2-mediated substrate uptake (summary over E1S and TCA), 10 µM drug, substrates E1S and TCA not separated): > 70%

B1: mOATP1B2 (Mus musculus) (protein)
chain: MDQTQHPSKAAQPLRSEKTRHCDGFRIFLAALSFSYICKALGGVIMKSSITQIERRFDIPSSISGLIDGGFEIGNLLVIVFVSYFGSKLHRPKLIGTGCFIMGIGSILTALPHFFMGYYRYATENDISSLHNSTLTCLVNQTTSLTGTSPEIMEKGCEKGSNSYTWIYVLMGNMLRGIGETPIVPLGVSYIDDFAKEGNSSMYLGTLHTIAMIGPILGFIMSSVFAKLYVDVGYVDLRSVRITPQDARWVGAWWLGFIVNGLLCIICSIPFFFLPKIPKRSQKERKNSASLHVLKTDEDKNPVTNPTTQEKQAPANLTGFLWSLRSILTNEQYVIFLILTLLQISSFIGSFTYLFKFIEQQFGQTASQANFLLGVITIPTMASGMFLGGYLIKRLKLTLLGITKFVFFTTTMAYVFYLSYFLLICENKAFAGLTLTYDGMNPVDSHIDVPLSYCNSDCICDKNQWEPVCGENGVTYISPCLAGCKSFRGDKKLMNIEFYDCSCVSGSGFQKGNHSARLGECPRDKCKTKYYFYITFQVIISFFTALGSTSLMLILIRSVQPELKSLGMGFHSLVVRTLGGILAPVYYGALIDRTCMKWSVTSCGARGACRLYNSRLFGMIYVGLSIALKTPILLLYVALIYVMKRKMKRNDNKILENGRKFTDEGNPEPVNNNGYSCVPSDEKNSETPL
- Km ([1]; other: mOATP1B2-HEK293, net uptake): 73 ± 11 µM

B2: rOATP1B2 (Rattus norvegicus) (protein)
chain: MDHTQQSRKAAEAQPSRSKQTRFCDGFKLFLAALSFSYICKALGGVVMKSSITQIERRFDIPSSISGLIDGGFEIGNLLVIVFVSYFGSKLHRPKLIGIGCFIMGIGSILTALPHFFMGYYKYAKENDIGSLGNSTLTCFINQMTSPTGPSPEIVEKGCEKGLKSHMWIYVLMGNMLRGIGETPIVPLGISYLDDFAKEGHTSMHLGTLHTIAMIGPILGFIMSSVFAKIYVDVGYVDLNSVRITPNDARWVGAWWLSFIVNGLLCITSSIPFFFLPKIPKRSQEERKNSVSLHAPKTDEEKKHMTNLTKQEEQDPSNMTGFLRSLRSILTNEIYVIFLILTLLQVSGFIGSFTYLFKFIEQQFGRTASQANFLLGIITIPTMATAMFLGGYIVKKFKLTSVGIAKFVFFTSSVAYAFQFLYFPLLCENKPFAGLTLTYDGMNPVDSHIDVPLSYCNSDCSCDKNQWEPICGENGVTYISPCLAGCKSFRGDKKPNNTEFYDCSCISNSGNNSAHLGECPRYKCKTNYYFYIILQVTVSFFTAMGSPSLILILMKSVQPELKSLAMGFHSLIIRALGGILAPIYYGAFIDRTCIKWSVTSCGKRGACRLYNSRLFGFSYLGLNLALKTPPLFLYVVLIYFTKRKYKRNDNKTLENGRQFTDEGNPDSVNKNGYYCVPYDEQSNETPL
- Km ([1]; other: rOATP1B2-HEK293, net uptake): 16 ± 3 µM
